Measurements reported in patent US9409952B2, “Peptide-compound cyclization method” (Chugai Seiyaku Kabushiki Kaisha, priority 2011, dated 2016).
Starred links: 1 amine or outer side, 2 acyl side, 3 side chain; linkers in the order of their positions; H or OH if unused. Positions of bridges follow the written chain, without caps; N, C: chain ends. Non-standard residues stand in square brackets, D forms with d. Residues, ends and D or L forms follow the SMILES beside them. *: point of attachment. NMeF = CN[C@@H](Cc1ccccc1)C(=O)O; NMeβAla = CN(CCC(=O)[*:2])[*:1]; NMeL = CN[C@@H](CC(C)C)C(=O)O; NMeV = CN[C@H](C(=O)O)C(C)C; NMeA = CN[C@@H](C)C(=O)O; Piperidide = C1CCN(*)CC1; dNMeA = CN[C@H](C)C(=O)O; Sar = CNCC(=O)O; tBu = CC(C)(C)*

Legend:
[1] = PAMPA (parallel artificial membrane permeability assay); type: in vitro ADME; settings: PAMPA; membrane permeation rate (Pe); 50 mM MOPSO buffer pH 6.5 with 5.0% glycocholic acid, 37° C., 18 hours; read-out: iPAMPA Pe
Procedure, shortened: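 Artificial membrane was 10% (w/v) egg lecithin plus 0.5% (w/v) cholesterol in dodecane on a PVDF filter. A 10 mM DMSO stock was added at 0.5% (v/v) to donor buffer (50 mM MOPSO, pH 6.5, 5.0% glycocholic acid). After 18 h at 37 °C, LC/MS or LC/UV gave donor and acceptor levels for Pe.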

[2] = Metabolic stability in human hepatic microsome; type: in vitro ADME; settings: microsomes, pH 7.4; human hepatic microsome, NADPH(+); read-out: CL NADPH(+)

For CC[C@H](C)[C@@H]1NC(=O)[C@H](CC(C)C)N(C)C(=O)[C@H](C(C)C)NC(=O)[C@H](CC(C)C)NC(=O)[C@H](CC(C)C)NC(=O)[C@H]([C@@H](C)O)NC(=O)[C@H](Cc2ccccc2)NC(=O)[C@H](CC(C)C)NC(=O)[C@H](C(C)C)N(C)C(=O)CCN(C)C(=O)C[C@@H](C(=O)N2CCCCC2)NC1=O [DP-412] ([NMeβAla][NMeV]LFTLLV[NMeL]ID-Piperidide; lactam N-11), the Papp at 18 hours, 50 µM [1] was 26 ×10⁻⁶ cm/s and the microsomal CLint at 1 uM [2] was 122 µL/min/mg.
CC[C@H](C)[C@@H]1NC(=O)[C@H](CC(C)C)N(C)C(=O)[C@H](C)NC(=O)CN(C)C(=O)[C@H](Cc2ccccc2)NC(=O)[C@H]([C@@H](C)O)NC(=O)[C@H](CC(C)C)N(C)C(=O)CCN(C)C(=O)C[C@@H](C(=O)N2CCCCC2)NC(=O)[C@H](CC(C)C)N(C)C(=O)[C@H](CC(C)C)N(C)C1=O [DP-413] ([NMeβAla][NMeL]TF[Sar]A[NMeL]I[NMeL][NMeL]D-Piperidide; lactam N-11) showed a Papp at 18 hours, 50 µM [1] of 29 ×10⁻⁶ cm/s and a microsomal CLint at 1 uM [2] of 68 µL/min/mg.
With CC(C)C[C@H]1C(=O)N(C)[C@@H](Cc2ccccc2)C(=O)N[C@@H]([C@@H](C)O)C(=O)N(C)[C@@H](C)C(=O)N(C)[C@@H](CC(C)C)C(=O)N(C)[C@@H](C)C(=O)N[C@H](C(=O)N2CCCCC2)CC(=O)N(C)CCC(=O)N(C)[C@@H](C)C(=O)N[C@@H](C)C(=O)N(C)[C@@H](C(C)C)C(=O)N1C [DP-414] ([NMeβAla][NMeA]A[NMeV][NMeL][NMeF]T[NMeA][NMeL][NMeA]D-Piperidide; lactam N-11) the Papp at 18 hours, 50 µM [1] was 4.4 ×10⁻⁶ cm/s and the microsomal CLint at 1 uM [2] was 20 µL/min/mg.
For CC[C@H](C)[C@@H]1NC(=O)[C@@H](C)NC(=O)C[C@@H](C(=O)N2CCCCC2)NC(=O)[C@H](Cc2ccccc2)NC(=O)[C@H]([C@@H](C)O)NC(=O)[C@H](C)NC(=O)[C@H](Cc2ccccc2)NC(=O)[C@H](CC(C)C)NC(=O)[C@H](CC(C)C)N(C)C(=O)[C@H](Cc2ccccc2)NC(=O)[C@H](CC(C)C)NC1=O [DP-415] ([dA]ILF[NMeL]LFATFD-Piperidide; lactam N-11), the Papp at 18 hours, 50 µM [1] was 2.9 ×10⁻⁶ cm/s and the microsomal CLint at 1 uM [2] was 118 µL/min/mg.
CC[C@H](C)[C@@H]1NC(=O)[C@H](CC(C)C)NC(=O)[C@H](C(C)C)NC(=O)[C@H](CC(C)C)N(C)C(=O)[C@H](CC(C)C)NC(=O)[C@H](Cc2ccccc2)NC(=O)[C@H]([C@@H](C)O)NC(=O)[C@H](CC(C)C)NC(=O)[C@H](Cc2ccccc2)NC(=O)[C@@H](C)N(C)C(=O)C[C@@H](C(=O)N2CCCCC2)NC1=O [DP-416] ([dNMeA]FLTFL[NMeL]VLID-Piperidide; lactam N-11) gave a Papp at 18 hours, 50 µM [1] of 0.23 ×10⁻⁶ cm/s and a microsomal CLint at 1 uM [2] of 20 µL/min/mg.
CC[C@H](C)[C@@H]1NC(=O)[C@H](C(C)C)N(C)C(=O)[C@H](C)N(C)C(=O)[C@H]([C@@H](C)O)NC(=O)[C@H](CC(C)C)N(C)C(=O)[C@H](Cc2ccccc2)NC(=O)[C@H](CC(C)C)N(C)C(=O)[C@@H](C)N(C)C(=O)C[C@@H](C(=O)N2CCCCC2)NC(=O)[C@H](C)NC(=O)[C@H](CC(C)C)N(C)C1=O [DP-417] ([dNMeA][NMeL]F[NMeL]T[NMeA][NMeV]I[NMeL]AD-Piperidide; lactam N-11) showed a Papp at 18 hours, 50 µM [1] of 43 ×10⁻⁶ cm/s and a microsomal CLint at 1 uM [2] of 113 µL/min/mg.
With CC(C)C[C@@H]1NC(=O)[C@H](CC(C)C)N(C)C(=O)[C@H](C)NC(=O)[C@H](C(C)C)N(C)C(=O)CN(C)C(=O)[C@H](Cc2ccccc2)NC(=O)[C@H]([C@@H](C)O)NC(=O)[C@H](CC(C)C)N(C)C(=O)[C@@H](C)N(C)C(=O)C[C@@H](C(=O)N2CCCCC2)NC(=O)[C@H](CC(C)C)N(C)C1=O [DP-418] ([dNMeA][NMeL]TF[Sar][NMeV]A[NMeL]L[NMeL]D-Piperidide; lactam N-11) the Papp at 18 hours, 50 µM [1] was 28 ×10⁻⁶ cm/s and the microsomal CLint at 1 uM [2] was 71 µL/min/mg.
Work on CC(C)C[C@H]1C(=O)N[C@@H]([C@@H](C)O)C(=O)N(C)[C@@H](C)C(=O)N(C)[C@@H](Cc2ccccc2)C(=O)N(C)CC(=O)N[C@@H](C)C(=O)N(C)[C@@H](Cc2ccccc2)C(=O)N(C)[C@@H](CC(C)C)C(=O)N[C@H](C(=O)N2CCCCC2)CC(=O)N(C)[C@H](C)C(=O)N(C)[C@@H](C)C(=O)N1C [DP-419] ([dNMeA][NMeA][NMeL]T[NMeA][NMeF][Sar]A[NMeF][NMeL]D-Piperidide; lactam N-11) yielded a Papp at 18 hours, 50 µM [1] of 6.7 ×10⁻⁶ cm/s and a microsomal CLint at 1 uM [2] of 17 µL/min/mg.
CC(C)C[C@@H]1NC(=O)CN(C)C(=O)[C@H](CC(C)C)NC(=O)[C@H](C)NC(=O)[C@H](CC(C)C)NC(=O)[C@H](CC(C)C)NC(=O)[C@H](C)N(C)C(=O)C[C@@H](C(=O)N2CCCCC2)NC(=O)[C@H]([C@@H](C)O)NC(=O)[C@H](Cc2ccccc2)NC(=O)[C@H](CC(C)C)NC1=O [DP-420] ([NMeA]LLAL[Sar]LLFTD-Piperidide; lactam N-11) showed a Papp at 18 hours, 50 µM [1] of 10 ×10⁻⁶ cm/s and a microsomal CLint at 1 uM [2] of 69 µL/min/mg.
Work on CC(C)C[C@@H]1NC(=O)[C@H](C)NC(=O)[C@H]([C@@H](C)O)NC(=O)[C@H](C)N(C)C(=O)C[C@@H](C(=O)N2CCCCC2)NC(=O)[C@H](CC(C)C)N(C)C(=O)[C@H](CC(C)C)NC(=O)[C@H](C(C)C)N(C)C(=O)[C@H](CC(C)C)NC(=O)[C@H](Cc2ccccc2)NC(=O)CN(C)C1=O [DP-421] ([NMeA]TAL[Sar]FL[NMeV]L[NMeL]D-Piperidide; lactam N-11) yielded a Papp at 18 hours, 50 µM [1] of 29 ×10⁻⁶ cm/s and a microsomal CLint at 1 uM [2] of 171 µL/min/mg.
Molecule CC(C)C[C@H]1C(=O)N[C@H](C(=O)N2CCCCC2)CC(=O)N(C)[C@@H](C)C(=O)N(C)[C@@H](Cc2ccccc2)C(=O)N(C)[C@@H](C)C(=O)N[C@@H]([C@@H](C)O)C(=O)N(C)[C@@H](C)C(=O)N[C@@H](Cc2ccccc2)C(=O)N(C)[C@@H](C)C(=O)N[C@@H](C)C(=O)N(C)[C@@H](C)C(=O)N1C [DP-422] ([NMeA][NMeF][NMeA]T[NMeA]F[NMeA]A[NMeA][NMeL]D-Piperidide; lactam N-11) has a Papp at 18 hours, 50 µM [1] of 3.8 ×10⁻⁶ cm/s and a microsomal CLint at 1 uM [2] of 26 µL/min/mg.
Molecule CC[C@H](C)[C@@H]1NC(=O)[C@H](Cc2ccccc2)NC(=O)[C@H]([C@@H](C)O)NC(=O)CCN(C)C(=O)C[C@@H](C(=O)N2CCCCC2)NC(=O)[C@H](Cc2ccccc2)NC(=O)[C@H](Cc2ccccc2)NC(=O)CNC(=O)[C@H](CC(C)C)N(C)C(=O)[C@H](CC(C)C)NC1=O [DP-423] ([NMeβAla]TFIL[NMeL]GFFD-Piperidide; lactam N-10) has a Papp at 18 hours, 50 µM [1] of 15 ×10⁻⁶ cm/s and a microsomal CLint at 1 uM [2] of 110 µL/min/mg.
In the case of CC[C@H](C)[C@@H]1NC(=O)[C@H](Cc2ccccc2)NC(=O)[C@H]([C@@H](C)O)NC(=O)[C@H](CC(C)C)NC(=O)CCN(C)C(=O)C[C@@H](C(=O)N2CCCCC2)NC(=O)[C@H](CC(C)C)NC(=O)[C@H](Cc2ccccc2)N(C)C(=O)[C@H](Cc2ccccc2)NC(=O)[C@H](CC(C)C)NC1=O [DP-424] ([NMeβAla]LTFILF[NMeF]LD-Piperidide; lactam N-10), the Papp at 18 hours, 50 µM [1] is reported as 46 ×10⁻⁶ cm/s and the microsomal CLint at 1 uM [2] is reported as 135 µL/min/mg.
For CC[C@H](C)[C@@H]1NC(=O)CCN(C)C(=O)C[C@@H](C(=O)N2CCCCC2)NC(=O)[C@H](Cc2ccccc2)N(C)C(=O)[C@H](CC(C)C)NC(=O)[C@H](CC(C)C)N(C)C(=O)[C@H](CC(C)C)NC(=O)[C@H]([C@@H](C)O)NC(=O)[C@H](Cc2ccccc2)NC(=O)[C@H](C(C)C)N(C)C1=O [DP-425] ([NMeβAla]I[NMeV]FTL[NMeL]L[NMeF]D-Piperidide; lactam N-10), the Papp at 18 hours, 50 µM [1] was 27 ×10⁻⁶ cm/s and the microsomal CLint at 1 uM [2] was 150 µL/min/mg.
In the case of CC(C)C[C@H]1C(=O)N[C@@H](Cc2ccccc2)C(=O)N[C@@H](COC(C)(C)C)C(=O)N(C)[C@@H](CC(C)C)C(=O)N(C)[C@@H](CC(C)C)C(=O)N[C@@H]([C@@H](C)O)C(=O)N[C@H](C(=O)N2CCCCC2)CC(=O)N(C)CCC(=O)N(C)[C@@H](Cc2ccccc2)C(=O)NCC(=O)N1C [DP-426] ([NMeβAla][NMeF]G[NMeL]FS(tBu)[NMeL][NMeL]TD-Piperidide; lactam N-10), the Papp at 18 hours, 50 µM [1] is reported as 36 ×10⁻⁶ cm/s and the microsomal CLint at 1 uM [2] is reported as 546 µL/min/mg.
In the case of CC[C@H](C)[C@@H]1NC(=O)[C@H](Cc2ccccc2)N(C)C(=O)[C@H](CC(C)C)N(C)C(=O)[C@H](Cc2ccccc2)NC(=O)[C@H](C)N(C)C(=O)[C@H]([C@@H](C)O)NC(=O)CCN(C)C(=O)C[C@@H](C(=O)N2CCCCC2)NC(=O)[C@H](CC(C)C)N(C)C(=O)[C@H](C(C)C)N(C)C1=O [DP-427] ([NMeβAla]T[NMeA]F[NMeL][NMeF]I[NMeV][NMeL]D-Piperidide; lactam N-10), the Papp at 18 hours, 50 µM [1] is reported as 37 ×10⁻⁶ cm/s and the microsomal CLint at 1 uM [2] is reported as 141 µL/min/mg.
Molecule CC(C)C[C@H]1C(=O)N(C)[C@@H](CC(C)C)C(=O)N(C)[C@@H](CC(C)C)C(=O)N[C@H](C(=O)N2CCCCC2)CC(=O)N(C)CCC(=O)N(C)[C@@H](Cc2ccccc2)C(=O)N(C)[C@@H](CC(C)C)C(=O)N[C@@H]([C@@H](C)O)C(=O)N(C)[C@@H](C)C(=O)NCC(=O)N1C [DP-428] ([NMeβAla][NMeF][NMeL]T[NMeA]G[NMeL][NMeL][NMeL]D-Piperidide; lactam N-10) has a Papp at 18 hours, 50 µM [1] of 26 ×10⁻⁶ cm/s and a microsomal CLint at 1 uM [2] of 77 µL/min/mg.
With CC[C@H](C)[C@@H]1NC(=O)[C@H](CC(C)C)N(C)C(=O)[C@H](CC(C)C)N(C)C(=O)CCN(C)C(=O)C[C@@H](C(=O)N2CCCCC2)NC(=O)[C@H](CC(C)C)N(C)C(=O)[C@H](CC(C)C)N(C)C(=O)[C@H](Cc2ccccc2)N(C)C(=O)[C@H]([C@@H](C)O)NC(=O)[C@H](Cc2ccccc2)N(C)C1=O [DP-429] ([NMeβAla][NMeL][NMeL]I[NMeF]T[NMeF][NMeL][NMeL]D-Piperidide; lactam N-10) the Papp at 18 hours, 50 µM [1] was 15 ×10⁻⁶ cm/s and the microsomal CLint at 1 uM [2] was 115 µL/min/mg.
In the case of CC[C@H](C)[C@@H]1NC(=O)[C@H](CC(C)C)NC(=O)[C@H](Cc2ccccc2)NC(=O)CN(C)C(=O)[C@H](CC(C)C)NC(=O)[C@H](Cc2ccccc2)NC(=O)[C@@H](C)NC(=O)C[C@@H](C(=O)N2CCCCC2)NC(=O)[C@H]([C@@H](C)O)NC(=O)[C@H](Cc2ccccc2)NC1=O [DP-430] ([dA]FL[Sar]FLIFTD-Piperidide; lactam N-10), the Papp at 18 hours, 50 µM [1] is reported as 32 ×10⁻⁶ cm/s and the microsomal CLint at 1 uM [2] is reported as 96 µL/min/mg.
